In patent US8466162B2, “5-alkynyl-pyridines” (Boehringer Ingelheim International GmbH, priority 2011, dated 2013):

Tests used:
[1] = target: T1, PI3Kalpha (Homo sapiens, UniProt P42336); experiment: Inhibition of PI3Kalpha-induced PIP-2 phosphorylation (filter-binding assay, 33P-ATP); format: biochemical; conditions: PI3 Kinase alpha (p85alpha/His-p110alpha), 1 μM ATP; read-out: IC50 PI3Kα
T1 construct: His (N); made in house; host or cells: SF9 insect cells (baculovirus co-infection)
Experimental: Biological Methods Inhibition of PI3Kalpha-Induced PIP-2 Phosphorylation
See also J. A. Engelman, Nature Reviews Cancer, 2009, 9, 550-562; A. Carnero, Expert Opin. Investig. Drugs, 2009, 18, 1265-1277 and P. Liu et al., Nature Reviews Drug Discovery, 2009, 8, 627-64.
Method Type: Filter-Binding-Assay
Aliquoted in desired amounts and stored at −80° C. […] Assay Procedure
The substrate-containing lipid vesicles are dissolved to a concentration of 0.637 mg lipid blend/ml assay buffer (with BSA, freshly added) in 50 ml Falcon ->keep on ice, followed by ultrasonication (pulse of 15 sec followed by a pause of 10 sec, 4×). Compounds are serially diluted in assay buffer+6% DMSO and 10 μl of each dilution is added per well of a 96-well plate (compounds are tested in duplicates) and mixed with 30 μl of the lipid vesicles containing PDGFR-Peptide (0.5 μM final) and PI3K alpha (25 ng/well final). The mixture is then incubated for 20 minutes at room temperature.
Subsequently, 20 μl of assay buffer containing 3 μM cold ATP and 0.5 μCi/20 μl 33P-ATP are added. The plates are then incubated at room temperature for 120 minutes (shaking with 300 rpm).
The reaction mix is transferred onto filter plates using “filtermate harvester” from Packard: filter plates are rinsed with PBS, then the reaction mix is filtered onto the filter plate, washed 5 times with PBS and are allowed to dry for 30-60 minutes at 50° C. The plate bottom is sealed with Perkin Elmer white adhesive foil and 25 μl/well Microscint0 are added, the top is covered with transparent adhesive foil and the plate is measured with Wallac Trilux 1450 Microbeta Counter.
As positive control serve wells containing vehicle controls (1% DMSO in assay buffer), showing non-inhibited kinase activity (high values). Wells containing assay buffer instead of enzyme can serve as control for background activity (low values).
Calculate IC50 values using the Smiley program (based on GrapPad Prism)

[2] = system: MCF7 cells; experiment: alamarBlue MCF7 cell assay (antiproliferative/cytotoxicity); format: cell-based; conditions: MCF7 human breast cancer cell line
Excerpt: (§1) The H460, MB453, U87, MCF7 and BT474 alamarBlue cell assays provide EC50 values indicative of the antiproliferative or cytotoxic effects of the compounds to respectively the H460 (human non small cell line cancer), MB-453 (breast cancer cell line), U87 (glioblastoma cell line), MCF7 (breast cancer cell line) and BT474 (breast cancer cell line). As known in the field, antiproliferative or cytotoxic effect against this cell lines would be expected to be indicative of activity in treating lung, breast and brain cancers. See R. Marone R et al. Biochim. Biophys. Acta. 2008 January; 1784(1):159-85. S. Yaguchi et al., J. Natl. Cancer Inst. 2006 Apr. 19; 98(8):545-56.
(§2) Method Type: Antiproliferative/Cytotoxicity
(§3) alamarBlue® is designed to provide a rapid and sensitive measure of cell proliferation and cytotoxicity in various human and animal cell lines. The assay is based on the reduction of alamarBlue in the reducing environment of living (metabolically active) cells. In the presence of added cytotoxic or antiproliferative compounds, the innate metabolic activity ceases.
(§4) AlamarBlue is soluble and stable in culture medium. Measurements are made fluorometrically by exciting at 530-560 nm and measuring emission at 590 nm. In reporting percent alamarBlue reduction by monitoring fluorescence, data are expressed as fluorescence emission intensity units as a function of time of incubation.
(§5) 3. Equipment • 96-well plates, flat bottom (Falcon, Cat. No.: 353072) • 96-well plates, U-shaped (Costar, Cat. No.: 3799) • CO2-Incubator • Microplate Reader, Spectramax Plus, Molecular Devices 4. Typical Procedure • Day 0: Seed 3000 BT-474 cells (IMDM/5% FCS, 1% NEAA, 1% Sodiumpyruvat) in 150 μl medium into a 96-well plate, flat bottom (include mediumblank). Incubate plates at 37° C. in a CO2 incubator overnight. • Day 1: Dilute compounds to a concentration 40 μM ->1:3 in medium, 10 dilution steps, in 96-well plates. • Add 50 μl per well of each dilution (total volume per well 200 μl; final conc. of cpds: 10 μM ->1:3). If required, test further dilutions. • All concentrations are tested in duplicates. • Controls: Cells w/o cpd. (+50 μl medium/DMSO). • Cells are incubated with compounds for 5-6 days. • Day 6 or 7: Add 25 μl of alamarBlue solution to each well and incubate for 8 hours at 37° C. Measure fluorescence by exciting at 530-560 nm and measuring emission at 590 nm 5. Evaluation • Subtract average value for medium blank from sample readings • Calculate EC50 using GraphPad Prism (Fifty)

[3] = system: H460 cells; experiment: alamarBlue H460 cell assay (antiproliferative/cytotoxicity); format: cell-based; conditions: NCI-H460; H460 human lung carcinoma cells
Excerpt: as §1, §2, §3, §4, §5

[4] = system: BT474 cells; experiment: alamarBlue BT474 cell assay (antiproliferative/cytotoxicity); format: cell-based; conditions: BT-474 human breast cancer cell line, 5-6 days incubation
Excerpt: as §1, §2, §3, §4, §5

[5] = system: MB453 cells; experiment: alamarBlue MB453 cell assay (antiproliferative/cytotoxicity); format: cell-based; conditions: Homo sapiens; MDA MB 453 breast cancer cell line
Excerpt: as §1, §2, §3, §4, §5

[6] = system: U87 cells; experiment: alamarBlue U87 cell assay (antiproliferative/cytotoxicity); format: cell-based; conditions: U-87MG human glioblastoma cells
Excerpt: as §1, §2, §3, §4, §5

T1 sequence (P27986 whole entry): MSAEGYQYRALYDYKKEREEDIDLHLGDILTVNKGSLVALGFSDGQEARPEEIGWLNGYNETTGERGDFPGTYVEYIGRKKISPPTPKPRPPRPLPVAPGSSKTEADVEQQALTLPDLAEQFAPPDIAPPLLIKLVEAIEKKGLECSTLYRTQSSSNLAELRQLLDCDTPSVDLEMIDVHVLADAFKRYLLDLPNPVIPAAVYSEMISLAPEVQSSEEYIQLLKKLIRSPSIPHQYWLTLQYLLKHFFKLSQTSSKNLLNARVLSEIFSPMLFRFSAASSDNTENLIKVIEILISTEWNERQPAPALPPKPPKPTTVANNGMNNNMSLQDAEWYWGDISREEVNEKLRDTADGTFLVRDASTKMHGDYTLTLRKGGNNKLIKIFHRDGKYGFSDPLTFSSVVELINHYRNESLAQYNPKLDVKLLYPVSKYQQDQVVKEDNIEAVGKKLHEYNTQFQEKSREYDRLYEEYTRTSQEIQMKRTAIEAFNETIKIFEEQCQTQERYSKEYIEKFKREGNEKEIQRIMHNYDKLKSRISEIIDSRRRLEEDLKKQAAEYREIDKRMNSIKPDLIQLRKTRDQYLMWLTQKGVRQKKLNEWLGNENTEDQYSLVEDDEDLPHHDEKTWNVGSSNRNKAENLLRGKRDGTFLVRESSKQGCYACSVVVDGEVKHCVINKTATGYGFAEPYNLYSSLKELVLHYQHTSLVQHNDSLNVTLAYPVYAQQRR
T1 sequence (P42336 whole entry): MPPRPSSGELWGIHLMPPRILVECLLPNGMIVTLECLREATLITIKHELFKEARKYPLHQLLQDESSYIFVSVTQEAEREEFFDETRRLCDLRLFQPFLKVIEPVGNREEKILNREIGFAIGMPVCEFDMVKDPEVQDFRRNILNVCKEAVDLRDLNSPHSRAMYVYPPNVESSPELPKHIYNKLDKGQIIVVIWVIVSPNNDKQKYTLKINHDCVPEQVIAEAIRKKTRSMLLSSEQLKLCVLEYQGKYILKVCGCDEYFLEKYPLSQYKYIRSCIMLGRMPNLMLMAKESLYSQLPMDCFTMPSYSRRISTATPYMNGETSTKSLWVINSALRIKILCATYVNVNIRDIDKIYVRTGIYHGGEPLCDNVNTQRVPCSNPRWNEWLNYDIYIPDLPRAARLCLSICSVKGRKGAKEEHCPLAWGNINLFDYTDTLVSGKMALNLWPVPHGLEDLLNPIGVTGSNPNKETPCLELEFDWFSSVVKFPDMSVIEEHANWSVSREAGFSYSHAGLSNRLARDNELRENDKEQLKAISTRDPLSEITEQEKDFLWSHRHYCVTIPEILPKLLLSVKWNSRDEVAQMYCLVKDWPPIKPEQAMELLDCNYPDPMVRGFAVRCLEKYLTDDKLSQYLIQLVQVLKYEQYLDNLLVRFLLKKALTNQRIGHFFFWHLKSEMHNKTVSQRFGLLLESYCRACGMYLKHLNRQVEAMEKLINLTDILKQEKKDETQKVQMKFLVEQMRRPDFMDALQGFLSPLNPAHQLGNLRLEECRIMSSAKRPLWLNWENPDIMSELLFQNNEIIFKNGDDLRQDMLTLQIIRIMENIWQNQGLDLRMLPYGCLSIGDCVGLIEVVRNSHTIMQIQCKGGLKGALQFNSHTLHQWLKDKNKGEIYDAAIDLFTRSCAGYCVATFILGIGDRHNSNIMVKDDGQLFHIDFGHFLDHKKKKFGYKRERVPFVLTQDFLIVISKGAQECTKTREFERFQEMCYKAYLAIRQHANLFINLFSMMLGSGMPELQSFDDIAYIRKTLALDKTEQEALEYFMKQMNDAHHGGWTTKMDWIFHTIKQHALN

| IC50 [1] | SMILES | EC50 [2] | EC50 [3] | EC50 [4] | EC50 [5] | EC50 [6] |
| --- | --- | --- | --- | --- | --- | --- |
| 2 nM | COc1ncc(C#Cc2c(C)nc(N)nc2-c2ccnc(C)c2)cc1NS(C)(=O)=O [Example 21, N-{5-[2-Amino-4-methyl-6-(2-methyl-pyridin-4-yl)-pyrimidin-5-ylethynyl]-2-methoxy-pyridin-3-yl}-methanesulfonamide] | 22 nM | 87 nM | 295 nM |  |  |
| 0.83 nM | CNC(=O)c1ccc(-c2nc(N)nc(C)c2C#Cc2cnc(Cl)c(NS(C)(=O)=O)c2)cc1Cl [Example 26, 4-[2-Amino-5-(6-chloro-5-methanesulfonylamino-pyridin-3-ylethynyl)-6-methyl-pyrimidin-4-yl]-2-chloro-N-methyl-benzamide] | 17 nM | 151 nM | 53 nM |  |  |
| 0.92 nM | CCc1ncnc(-c2cccc(C#N)c2)c1C#Cc1cnc(C)c(NS(=O)(=O)c2ccc(F)cc2F)c1 [Example 29, N-{5-[4-(3-Cyano-phenyl)-6-ethyl-pyrimidin-5-ylethynyl]-2-methyl-pyridin-3-yl}-2,4-difluoro-benzenesulfonamide] | 83 nM | 255 nM | 282 nM | 258 nM |  |
| 2 nM | CCc1ncnc(-c2cccc(CN(C)C)c2)c1C#Cc1cnc(C)c(NS(=O)(=O)c2ccc(F)cc2F)c1 [Example 30, N-{5-[4-(3-Dimethylaminomethyl-phenyl)-6-ethyl-pyrimidin-5-ylethynyl]-2-methyl-pyridin-3-yl}-2,4-difluoro-benzenesulfonamide] | 77 nM | 347 nM | 108 nM | 188 nM |  |
| 2 nM | CCc1ncnc(-c2ccnc(C)c2)c1C#Cc1cnc(C)c(NS(=O)(=O)c2ccc(OC)cc2OC)c1 [Example 98, N-{5-[4-Ethyl-6-(2-methyl-pyridin-4-yl)-pyrimidin-5-ylethynyl]-2-methyl-pyridin-3-yl}-2,4-dimethoxy-benzenesulfonamide] |  | 288 nM | 225 nM | 437 nM | 559 nM |
| 0.65 nM | CCc1ncnc(-c2ccnc(C)c2)c1C#Cc1cnc(C)c(NS(=O)(=O)c2cc(Cl)ccc2OC)c1 [Example 101, 5-Chloro-N-{5-[4-ethyl-6-(2-methyl-pyridin-4-yl)-pyrimidin-5-ylethynyl]-2-methyl-pyridin-3-yl}-2-methoxy-benzenesulfonamide] |  | 82 nM | 102 nM | 89 nM | 259 nM |
| 0.32 nM | CCc1ncnc(-c2ccnc(C)c2)c1C#Cc1cnc(C)c(NS(=O)(=O)c2c(F)cccc2F)c1 [Example 103, N-{5-[4-Ethyl-6-(2-methyl-pyridin-4-yl)-pyrimidin-5-ylethynyl]-2-methyl-pyridin-3-yl}-2,6-difluoro-benzenesulfonamide] |  | 185 nM | 53 nM | 59 nM | 161 nM |

Second part, the compound before the results:

| SMILES | IC50 [1] | EC50 [2] | EC50 [3] | EC50 [4] | EC50 [5] | EC50 [6] |
| --- | --- | --- | --- | --- | --- | --- |
| COc1ncc(C#Cc2c(C)nc(N)nc2-c2ccnc(C)c2)cc1NS(=O)(=O)c1ccc(F)cc1F [Example 22, N-{5-[2-Amino-4-methyl-6-(2-methyl-pyridin-4-yl)-pyrimidin-5-ylethynyl]-2-methoxy-pyridin-3-yl}-2,4-difluoro-benzenesulfonamide] | 0.36 nM | 3 nM | 13 nM | 29 nM |  |  |
| CNC(=O)c1ccc(-c2nc(N)nc(C)c2C#Cc2cnc(C)c(NS(C)(=O)=O)c2)cc1Cl [Example 25, 4-[2-Amino-5-(5-methanesulfonylamino-6-methyl-pyridin-3-ylethynyl)-6-methyl-pyrimidin-4-yl]-2-chloro-N-methyl-benzamide] | 3 nM | 122 nM | 376 nM | 231 nM |  |  |
| CCc1nc(N)nc(-c2cccc(C#N)c2)c1C#Cc1cnc(C)c(NS(=O)(=O)c2ccc(F)cc2F)c1 [Example 34, N-{5-[2-Amino-4-(3-cyano-phenyl)-6-ethyl-pyrimidin-5-ylethynyl]-2-methyl-pyridin-3-yl}-2,4-difluoro-benzenesulfonamide] | 0.9 nM | 17 nM | 147 nM | 107 nM | 174 nM |  |
| CCc1ncnc(-c2ccc(C(=O)N3CCN(C)CC3)c(F)c2)c1C#Cc1cnc(C)c(NS(C)(=O)=O)c1 [Example 81, N-(5-{4-Ethyl-6-[3-fluoro-4-(4-methyl-piperazine-1-carbonyl)-phenyl]-pyrimidin-5-ylethynyl}-2-methyl-pyridin-3-yl)-methanesulfonamide] | 3 nM | 301 nM | 2350 nM | 477 nM |  |  |
| CCc1nc(N)nc(-c2ccc(C(=O)N3CCN(C)CC3)c(F)c2)c1C#Cc1cnc(C)c(NS(C)(=O)=O)c1 [Example 82, N-(5-{2-Amino-4-ethyl-6-[3-fluoro-4-(4-methyl-piperazine-1-carbonyl)-phenyl]-pyrimidin-5-ylethynyl}-2-methyl-pyridin-3-yl)-methanesulfonamide] | 1 nM | 194 nM | 2270 nM | 511 nM |  |  |
| CCc1ncnc(-c2ccnc(C)c2)c1C#Cc1cnc(C)c(NS(=O)(=O)c2ccccc2OC)c1 [Example 96, N-{5-[4-Ethyl-6-(2-methyl-pyridin-4-yl)-pyrimidin-5-ylethynyl]-2-methyl-pyridin-3-yl}-2-methoxy-benzenesulfonamide] | 0.71 nM |  | 93 nM | 84 nM | 102 nM | 225 nM |
| CCc1ncnc(-c2ccnc(C)c2)c1C#Cc1cnc(C)c(NS(=O)(=O)c2ccc(C(C)(C)C)cc2)c1 [Example 99, 4-tert-Butyl-N-{5-[4-ethyl-6-(2-methyl-pyridin-4-yl)-pyrimidin-5-ylethynyl]-2-methyl-pyridin-3-yl}-benzenesulfonamide] | 11 nM |  | 2490 nM | 4970 nM | 2930 nM | 2420 nM |
| CCc1ccc(S(=O)(=O)Nc2cc(C#Cc3c(CC)ncnc3-c3ccnc(C)c3)cnc2C)cc1 [Example 100, 4-Ethyl-N-{5-[4-ethyl-6-(2-methyl-pyridin-4-yl)-pyrimidin-5-ylethynyl]-2-methyl-pyridin-3-yl}-benzenesulfonamide] | 5 nM |  | 558 nM | 733 nM | 746 nM | 819 nM |
| CCc1ncnc(-c2ccnc(C)c2)c1C#Cc1cnc(C)c(NS(=O)(=O)c2cc(C)ccc2OC)c1 [Example 102, N-{5-[4-Ethyl-6-(2-methyl-pyridin-4-yl)-pyrimidin-5-ylethynyl]-2-methyl-pyridin-3-yl}-2-methoxy-5-methyl-benzenesulfonamide] | 1 nM |  | 104 nM | 149 nM | 146 nM | 319 nM |
